Reference: PubChem BioAssay AID248 (DTP/NCI, 2004)
“And” between values parts separate entries of the source, which are not always exact repeats. Equal values may be shown once. Toxic doses and inconclusive results are not listed.

System: L1210 leukemia ip in BDF1 mice, survival T/C
Assay: NCI In Vivo Anticancer Drug Screen. Data for tumor model L1210 Leukemia (intraperitoneal) in B6D2F1 (BDF1) mice
Details: endpoint: mean survival time, higher = longer survival
How it was run: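 Transplantable tumor model; survival measured in treated vs vehicle control mice. Value = treated/control.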

[1] = dose: 25.0 mg/kg/injection, schedule: Q04DX002 (ip), vehicle: saline
[2] = dose: 50.0 mg/kg/injection, schedule: Q04DX002 (ip), vehicle: saline
[3] = dose: 100.0 mg/kg/injection, schedule: Q04DX002 (ip), vehicle: saline
[4] = dose: 25.0 mg/kg/injection, schedule: Q01DX009 (ip), vehicle: Klucel (hydroxypropylcellulose) (HPC)
[5] = dose: 50.0 mg/kg/injection, schedule: Q01DX009 (ip), vehicle: Klucel (hydroxypropylcellulose) (HPC)
[6] = dose: 100.0 mg/kg/injection, schedule: Q01DX009 (ip), vehicle: Klucel (hydroxypropylcellulose) (HPC)
[7] = dose: 100.0 mg/kg/injection, schedule: Q04DX003 (ip), vehicle: Klucel (hydroxypropylcellulose) (HPC)
[8] = dose: 100.0 mg/kg/injection, schedule: Q01DX001 (ip), vehicle: Klucel (hydroxypropylcellulose) (HPC)
[9] = dose: 200.0 mg/kg/injection, schedule: Q01DX001 (ip), vehicle: Klucel (hydroxypropylcellulose) (HPC)
[10] = dose: 100.0 mg/kg/injection, schedule: Q04DX003 (ip), vehicle: saline
[11] = dose: 150.0 mg/kg/injection, schedule: Q04DX003 (ip), vehicle: saline
[12] = dose: 100.0 mg/kg/injection, schedule: Q01DX001 (ip), vehicle: carboxymethylcellulose (CMC)
[13] = dose: 200.0 mg/kg/injection, schedule: Q01DX001 (ip), vehicle: carboxymethylcellulose (CMC)
[14] = dose: 200.0 mg/kg/injection, schedule: Q01DX009 (ip), vehicle: Klucel (hydroxypropylcellulose) (HPC)

O=C(CCl)NP(=O)(O)OCc1ccccc1
T/C [1]: 102 % of control | T/C [2]: 94 % of control | T/C [3]: 91 % of control

CNC(c1ccccc1)C(O)c1ccccc1 (configuration not stated)
T/C [4]: 106 % of control | T/C [5]: 95 % of control | T/C [6]: 106 % of control | T/C [7]: 97 % of control

CCc1nc2nnnn2c(CC)c1-c1ccccc1O
T/C (dose: 100.0 mg/kg/injection, schedule: Q04DX002 (ip), vehicle: saline with Tween-80): 98 % of control | T/C (dose: 200.0 mg/kg/injection, schedule: Q04DX002 (ip), vehicle: saline with Tween-80): 104 % of control | T/C (dose: 400.0 mg/kg/injection, schedule: Q04DX002 (ip), vehicle: saline with Tween-80): 88 % of control

OC1COC(OCc2ccccc2)C(O)C1O (configuration not stated)
T/C [8]: 101 % of control | T/C (dose: 100.0 mg/kg/injection, schedule: Q04DX003 (ip), vehicle: saline with Tween-80): 101 % of control | T/C [9]: 96 % of control | T/C (dose: 200.0 mg/kg/injection, schedule: Q04DX003 (ip), vehicle: saline with Tween-80): 100 % of control | T/C (dose: 400.0 mg/kg/injection, schedule: Q01DX001 (ip), vehicle: Klucel (hydroxypropylcellulose) (HPC)): 101 % of control

CC(CN1CC(=O)NC(=O)C1)N1CC(=O)NC(=O)C1.[Cl-].[Pt+4] (configuration not stated)
T/C (dose: 6.25 mg/kg/injection, schedule: Q01DX009 (ip), vehicle: saline): 110 % of control | T/C (dose: 25.0 mg/kg/injection, schedule: Q01DX009 (ip), vehicle: saline): 114 % of control and 120 % of control | T/C (dose: 25.0 mg/kg/injection, schedule: Q04DX003 (ip), vehicle: saline): 108 % of control | T/C (dose: 50.0 mg/kg/injection, schedule: Q01DX009 (ip), vehicle: saline): 120 % of control | T/C (dose: 50.0 mg/kg/injection, schedule: Q04DX003 (ip), vehicle: saline): 109 % of control and 120 % of control | T/C (dose: 100.0 mg/kg/injection, schedule: Q01DX009 (ip), vehicle: saline): 114 % of control | T/C [10]: 153 % of control | T/C [11]: 116 % of control

O=[N+]([O-])c1ccc(NN(c2ccccc2)c2ccccc2)c([N+](=O)[O-])c1
T/C [7]: 98 % of control | T/C (dose: 200.0 mg/kg/injection, schedule: Q04DX003 (ip), vehicle: Klucel (hydroxypropylcellulose) (HPC)): 97 % of control | T/C (dose: 400.0 mg/kg/injection, schedule: Q04DX003 (ip), vehicle: Klucel (hydroxypropylcellulose) (HPC)): 90 % of control

CCOc1nc(=O)n(C2CCOC2=O)cc1F (configuration not stated)
T/C (dose: 75.0 mg/kg/injection, schedule: Q01DX009 (ip), vehicle: other): 103 % of control | T/C [10]: 92 % of control | T/C (dose: 150.0 mg/kg/injection, schedule: Q01DX009 (ip), vehicle: other): 103 % of control | T/C (dose: 200.0 mg/kg/injection, schedule: Q04DX003 (ip), vehicle: saline): 106 % of control | T/C (dose: 300.0 mg/kg/injection, schedule: Q01DX009 (ip), vehicle: other): 100 % of control | T/C (dose: 400.0 mg/kg/injection, schedule: Q04DX003 (ip), vehicle: saline): 95 % of control

N#C/C(=C\c1cccn1Cc1cc2ccccc2c2ccccc12)C(N)=O
T/C [1]: 105 % of control | T/C [2]: 108 % of control | T/C [3]: 119 % of control

c1ccc2c3c(cc(C4CCCC4)c2c1)CCCC3
T/C [12]: 88 % of control | T/C [13]: 91 % of control

Cc1cc(C)c(C(=O)N/N=C/c2ccc(N(CCCl)CCCl)cc2)c(=O)[nH]1
T/C (dose: 50.0 mg/kg/injection, schedule: Q01DX001 (ip), vehicle: carboxymethylcellulose (CMC)): 97 % of control | T/C [12]: 100 % of control | T/C [13]: 103 % of control | T/C (dose: 400.0 mg/kg/injection, schedule: Q01DX001 (ip), vehicle: carboxymethylcellulose (CMC)): 92 % of control

COc1cc(C=Nc2ccc(-c3csc(-c4ccccc4)n3)c(Cl)c2)ccc1N(CCCl)CCCl
T/C (dose: 13.3 mg/kg/injection, schedule: Q01DX001 (ip), vehicle: carboxymethylcellulose (CMC)): 122 % of control | T/C (dose: 20.0 mg/kg/injection, schedule: Q01DX009 (ip), vehicle: carboxymethylcellulose (CMC)): 158 % of control | T/C [12]: 166 % of control | T/C [13]: 95 % of control

C[N+](C)(CC(=O)Nc1cc(C(F)(F)F)cc(C(F)(F)F)c1)CC(=O)Nc1ccc(Cl)c(C(F)(F)F)c1
T/C (dose: 6.25 mg/kg/injection, schedule: Q04DX002 (ip), vehicle: saline with Tween-80): 93 % of control | T/C (dose: 12.5 mg/kg/injection, schedule: Q04DX002 (ip), vehicle: saline with Tween-80): 93 % of control | T/C (dose: 25.0 mg/kg/injection, schedule: Q04DX002 (ip), vehicle: saline with Tween-80): 100 % of control and 91 % of control

O=C(Nc1cccc2ccccc12)c1ccc([N+](=O)[O-])s1
T/C (dose: 50.0 mg/kg/injection, schedule: Q01DX005 (ip), vehicle: water): 87 % of control | T/C (dose: 100.0 mg/kg/injection, schedule: Q01DX005 (ip), vehicle: water): 89 % of control | T/C (dose: 200.0 mg/kg/injection, schedule: Q01DX005 (ip), vehicle: water): 87 % of control | T/C (dose: 400.0 mg/kg/injection, schedule: Q01DX005 (ip), vehicle: water): 91 % of control

COc1ccccc1-n1c(O)c(N=Nc2ccc(Br)cc2)c(=O)n(-c2ccc(I)cc2)c1=S
T/C (dose: 50.0 mg/kg/injection, schedule: Q01DX001 (ip), vehicle: Klucel (hydroxypropylcellulose) (HPC)): 102 % of control | T/C [8]: 112 % of control | T/C [9]: 102 % of control

CCN(CC)CCCC(C)Nc1cc(C)nc(/N=C(\N)Nc2ccc(Cl)c(Cl)c2)n1 (configuration not stated)
T/C [4]: 96 % of control | T/C [5]: 94 % of control | T/C [8]: 92 % of control

NC(=O)NC(=O)Nc1ccccc1
T/C [3]: 96 % of control | T/C (dose: 200.0 mg/kg/injection, schedule: Q04DX002 (ip), vehicle: saline): 96 % of control | T/C (dose: 400.0 mg/kg/injection, schedule: Q04DX002 (ip), vehicle: saline): 111 % of control

CC(=O)Nc1ccc(N=C(N)c2ccc(C(N)=Nc3ccc(NC(C)=O)cc3)cc2)cc1
T/C (dose: 62.0 mg/kg/injection, schedule: Q01DX015 (ip), vehicle: methylcellulose (MC)): 98 % of control | T/C (dose: 125.0 mg/kg/injection, schedule: Q01DX015 (ip), vehicle: methylcellulose (MC)): 86 % of control | T/C (dose: 250.0 mg/kg/injection, schedule: Q01DX015 (ip), vehicle: methylcellulose (MC)): 91 % of control | T/C (dose: 500.0 mg/kg/injection, schedule: Q01DX015 (ip), vehicle: methylcellulose (MC)): 86 % of control

Cc1ccc(S(=O)(=O)NC(=O)NCc2cccc(Cl)c2)cc1
T/C [6]: 101 % of control | T/C [14]: 101 % of control | T/C (dose: 400.0 mg/kg/injection, schedule: Q01DX009 (ip), vehicle: Klucel (hydroxypropylcellulose) (HPC)): 96 % of control

CNC(=O)c1cc(C(=O)NC)c[n+](Cc2c(Cl)cccc2Cl)c1
T/C (dose: 18.75 mg/kg/injection, schedule: Q01DX009 (ip), vehicle: saline): 92 % of control | T/C (dose: 37.5 mg/kg/injection, schedule: Q01DX009 (ip), vehicle: saline): 103 % of control | T/C (dose: 37.5 mg/kg/injection, schedule: Q04DX003 (ip), vehicle: saline): 100 % of control | T/C (dose: 75.0 mg/kg/injection, schedule: Q01DX001 (ip), vehicle: saline): 96 % of control | T/C (dose: 75.0 mg/kg/injection, schedule: Q01DX009 (ip), vehicle: saline): 100 % of control | T/C (dose: 75.0 mg/kg/injection, schedule: Q04DX003 (ip), vehicle: saline): 105 % of control | T/C (dose: 150.0 mg/kg/injection, schedule: Q01DX001 (ip), vehicle: saline): 98 % of control | T/C [11]: 97 % of control

S=c1n(Cc2ccccc2)cnc2ncnn12
T/C [5]: 93 % of control | T/C [6]: 97 % of control | T/C [14]: 95 % of control

OC(c1ccccc1)C(O)c1ccccc1 (configuration not stated)
T/C (dose: 5.0 mg/kg/injection, schedule: Q01DX001 (ip), vehicle: saline): 103 % of control | T/C (dose: 10.0 mg/kg/injection, schedule: Q01DX001 (ip), vehicle: saline): 100 % of control | T/C (dose: 12.5 mg/kg/injection, schedule: Q01DX009 (ip), vehicle: Klucel (hydroxypropylcellulose) (HPC)): 93 % of control | T/C (dose: 20.0 mg/kg/injection, schedule: Q01DX001 (ip), vehicle: saline): 97 % of control | T/C [4]: 92 % of control | T/C (dose: 40.0 mg/kg/injection, schedule: Q01DX001 (ip), vehicle: saline): 92 % of control | T/C [5]: 93 % of control | T/C (dose: 80.0 mg/kg/injection, schedule: Q01DX001 (ip), vehicle: saline): 98 % of control
